Experimental data from ChEMBL document CHEMBL1141026, “Synthesis, in vitro antitrypanosomal and antibacterial activity of phenoxy, phenylthio or benzyloxy substituted quinolones” (Bioorg Med Chem Lett, 2009).
Converted amounts (≈) assume the structure as drawn.

Assays:
[1] = system: Trypanosoma cruzi; assay: Antitrypanosomal activity against trypomastigotes of Trypanosoma cruzi Tulahuen C2C4 containing lacZ gene in rat L6 cells after 4 days; format: functional, organism-based; settings: L6, 96 h
[2] = system: Shigella sonnei; assay: Antibacterial activity against Shigella sonnei after 24 hrs by agar dilution method; format: functional
[3] = system: Staphylococcus epidermidis; assay: Antibacterial activity against Staphylococcus epidermidis after 24 hrs by agar dilution method; format: functional
[4] = system: Proteus mirabilis; assay: Antibacterial activity against Proteus mirabilis after 24 hrs by agar dilution method; format: functional
[5] = system: Klebsiella pneumoniae; assay: Antibacterial activity against Klebsiella pneumoniae after 24 hrs by agar dilution method; format: functional
[6] = system: Escherichia coli; assay: Antibacterial activity against Escherichia coli after 24 hrs by agar dilution method; format: functional
[7] = system: Proteus vulgaris; assay: Antibacterial activity against Proteus vulgaris after 24 hrs by agar dilution method; format: functional
[8] = system: Aeromonas hydrophila; assay: Antibacterial activity against Aeromonas hydrophila after 24 hrs by agar dilution method; format: functional
[9] = system: Streptococcus; assay: Antibacterial activity against gamma-streptococcus after 24 hrs by agar dilution method; format: functional
[10] = system: Staphylococcus aureus; assay: Antibacterial activity against Staphylococcus aureus after 24 hrs by agar dilution method; format: functional
[11] = system: Shigella boydii; assay: Antibacterial activity against Shigella boydii after 24 hrs by agar dilution method; format: functional
[12] = system: Salmonella enterica subsp. enterica; assay: Antibacterial activity against Salmonella enteritidis after 24 hrs by agar dilution method; format: functional, Salmonella enterica subsp. enterica serovar Enteritidis
[13] = system: Morganella morganii; assay: Antibacterial activity against Morganella morganii after 24 hrs by agar dilution method; format: functional
[14] = system: Shigella flexneri; assay: Antibacterial activity against Shigella flexneri after 24 hrs by agar dilution method; format: functional
[15] = system: Pseudomonas aeruginosa; assay: Antibacterial activity against Pseudomonas aeruginosa after 24 hrs by agar dilution method; format: functional
[16] = system: Streptococcus pneumoniae; assay: Antibacterial activity against Streptococcus pneumoniae after 24 hrs by agar dilution method; format: functional
[17] = system: Salmonella typhimurium; assay: Antibacterial activity against Salmonella Typhimurium after 24 hrs by agar dilution method; format: functional, Salmonella enterica subsp. enterica serovar Typhimurium; settings: Salmonella enterica
[18] = system: Serratia marcescens; assay: Antibacterial activity against Serratia marcescens after 24 hrs by agar dilution method; format: functional
[19] = system: Citrobacter freundii; assay: Antibacterial activity against Citrobacter freundii after 24 hrs by agar dilution method; format: functional
[20] = system: Enterococcus faecalis; assay: Antibacterial activity against Enterococcus faecalis after 24 hrs by agar dilution method; format: functional
[21] = system: Staphylococcus; assay: Antibacterial activity against Staphylococcus albus after 24 hrs by agar dilution method; format: functional

CCn1cc(C(=O)OC)c(=O)c2cc(F)c(Sc3ccccc3)c(Sc3ccccc3)c21
IC50 [1]: 2.4 µg/mL (≈ 5.15 µM)

CCn1cc(C(=O)O)c(=O)c2cc(Sc3ccccc3)c(Sc3ccccc3)c(Sc3ccccc3)c21
IC50 [1]: 39.9 µg/mL (≈ 73.7 µM)

CCn1cc(C(=O)O)c(=O)c2cc(F)c(Sc3ccc(C)cc3)c(Sc3ccc(C)cc3)c21
IC50 [1]: 52.7 µg/mL (≈ 110 µM)

CCn1cc(C(N)=O)c(=O)c2cc(F)c(Oc3ccccc3)c(Oc3ccccc3)c21
IC50 [1]: 4 µg/mL (≈ 9.56 µM)

CCn1cc(C(N)=O)c(=O)c2cc(F)c(Sc3ccccc3)c(Sc3ccccc3)c21
IC50 [1]: > 90 µg/mL

CCn1cc(C(=O)O)c(=O)c2cc(F)c(OCc3ccccc3)c(OCc3ccccc3)c21
IC50 [1]: 1.3 µg/mL (≈ 2.91 µM)

O=C(O)c1cn(C2CC2)c2c(F)c(Oc3ccccc3)c(F)cc2c1=O
MIC [2]: 1.56 µg/mL (≈ 4.37 µM) | IC50 [1]: > 90 µg/mL | MIC [3]: 1.56 µg/mL (≈ 4.37 µM) | MIC [4]: 6.25 µg/mL (≈ 17.5 µM) | MIC [5]: 1.56 µg/mL (≈ 4.37 µM) | MIC [6]: 3.13 µg/mL (≈ 8.76 µM) | MIC [7]: 6.25 µg/mL (≈ 17.5 µM) | MIC [8]: 6.25 µg/mL (≈ 17.5 µM) | MIC [9]: > 25 µg/mL | MIC [10]: 0.39 µg/mL (≈ 1.09 µM) | MIC [11]: 1.56 µg/mL (≈ 4.37 µM) | MIC [12]: 3.13 µg/mL (≈ 8.76 µM) | MIC [13]: 3.13 µg/mL (≈ 8.76 µM) | MIC [14]: > 25 µg/mL | MIC [15]: 12.5 µg/mL (≈ 35 µM) | MIC [16]: 0.098 µg/mL (≈ 0.274 µM) | MIC [17]: 3.13 µg/mL (≈ 8.76 µM) | MIC [18]: 12.5 µg/mL (≈ 35 µM) | MIC [19]: 1.56 µg/mL (≈ 4.37 µM) | MIC [20]: 12.5 µg/mL (≈ 35 µM) | MIC [21]: 1.56 µg/mL (≈ 4.37 µM)

CCn1cc(C(=O)O)c(=O)c2cc(F)c(Sc3ccccc3)c(F)c21
MIC [2]: 12.5 µg/mL (≈ 34.6 µM) | IC50 [1]: 34.6 µg/mL (≈ 95.7 µM) | MIC [3]: 3.13 µg/mL (≈ 8.66 µM) | MIC [4]: > 25 µg/mL | MIC [5]: 12.5 µg/mL (≈ 34.6 µM) | MIC [6]: > 25 µg/mL | MIC [7]: > 25 µg/mL | MIC [8]: > 25 µg/mL | MIC [9]: > 25 µg/mL | MIC [10]: 3.13 µg/mL (≈ 8.66 µM) | MIC [11]: 12.5 µg/mL (≈ 34.6 µM) | MIC [12]: > 25 µg/mL | MIC [13]: > 25 µg/mL | MIC [14]: > 25 µg/mL | MIC [15]: > 25 µg/mL | MIC [16]: 0.78 µg/mL (≈ 2.16 µM) | MIC [17]: > 25 µg/mL | MIC [18]: > 25 µg/mL | MIC [19]: 12.5 µg/mL (≈ 34.6 µM) | MIC [20]: > 25 µg/mL | MIC [21]: > 25 µg/mL

CCn1cc(C(=O)O)c(=O)c2cc(F)c(OCc3ccccc3)c(F)c21
MIC [2]: 12.5 µg/mL (≈ 34.8 µM) | IC50 [1]: 18.3 µg/mL (≈ 50.9 µM) | MIC [3]: 25 µg/mL (≈ 69.6 µM) | MIC [4]: > 25 µg/mL | MIC [5]: 6.25 µg/mL (≈ 17.4 µM) | MIC [6]: > 25 µg/mL | MIC [7]: > 25 µg/mL | MIC [8]: > 25 µg/mL | MIC [9]: > 25 µg/mL | MIC [10]: 6.25 µg/mL (≈ 17.4 µM) | MIC [11]: 25 µg/mL (≈ 69.6 µM) | MIC [12]: > 25 µg/mL | MIC [13]: > 25 µg/mL | MIC [14]: > 25 µg/mL | MIC [15]: > 25 µg/mL | MIC [16]: 1.56 µg/mL (≈ 4.34 µM) | MIC [17]: 25 µg/mL (≈ 69.6 µM) | MIC [18]: > 25 µg/mL | MIC [19]: 25 µg/mL (≈ 69.6 µM) | MIC [20]: > 25 µg/mL | MIC [21]: > 25 µg/mL

O=C(O)c1cn(C2CC2)c2c(F)c(OCc3ccccc3)c(F)cc2c1=O
MIC [2]: 1.56 µg/mL (≈ 4.2 µM) | IC50 [1]: > 90 µg/mL | MIC [3]: 1.56 µg/mL (≈ 4.2 µM) | MIC [4]: 6.25 µg/mL (≈ 16.8 µM) | MIC [5]: 0.78 µg/mL (≈ 2.1 µM) | MIC [6]: 1.56 µg/mL (≈ 4.2 µM) | MIC [7]: 6.25 µg/mL (≈ 16.8 µM) | MIC [8]: 3.13 µg/mL (≈ 8.43 µM) | MIC [9]: 6.25 µg/mL (≈ 16.8 µM) | MIC [10]: 1.56 µg/mL (≈ 4.2 µM) | MIC [11]: 1.56 µg/mL (≈ 4.2 µM) | MIC [12]: 3.13 µg/mL (≈ 8.43 µM) | MIC [13]: 6.25 µg/mL (≈ 16.8 µM) | MIC [14]: > 25 µg/mL | MIC [15]: 6.25 µg/mL (≈ 16.8 µM) | MIC [16]: 1.56 µg/mL (≈ 4.2 µM) | MIC [17]: 1.56 µg/mL (≈ 4.2 µM) | MIC [18]: 6.25 µg/mL (≈ 16.8 µM) | MIC [19]: 1.56 µg/mL (≈ 4.2 µM) | MIC [20]: 12.5 µg/mL (≈ 33.7 µM) | MIC [21]: 6.25 µg/mL (≈ 16.8 µM)

CCn1cc(C(=O)OC)c(=O)c2cc(F)c(Oc3ccccc3)c(Oc3ccccc3)c21
IC50 [1]: > 90 µg/mL

CCOC(=O)c1cn(CC)c2c(Oc3ccccc3)c(Oc3ccccc3)c(F)cc2c1=O
IC50 [1]: 1.7 µg/mL (≈ 3.8 µM)

CCOC(=O)c1cn(CC)c2c(Sc3ccccc3)c(Sc3ccccc3)c(F)cc2c1=O
IC50 [1]: 6 µg/mL (≈ 12.5 µM)

CCOC(=O)c1cn(CC)c2c(OCc3ccccc3)c(OCc3ccccc3)c(F)cc2c1=O
IC50 [1]: 1.7 µg/mL (≈ 3.58 µM)

CCn1cc(C(=O)O)c(=O)c2cc(F)c(Oc3ccc(O)cc3)c(Oc3ccc(O)cc3)c21
IC50 [1]: 57.1 µg/mL (≈ 126 µM)

CCn1cc(C(=O)O)c(=O)c2cc(OCc3ccccc3)c(OCc3ccccc3)c(OCc3ccccc3)c21
IC50 [1]: 2.5 µg/mL (≈ 4.67 µM)
